Test results from article PMC13266984 (Journal of medicinal chemistry, 2026).
Values joined by “and” are separate entries in the source; they are usually repeats but may differ in a detail not shown here. Equal entries are not always repeated.

How the values were obtained:
[1] = Metabolic stability in rat liver microsome fractions; type: in vitro ADME; settings: in words
[2] = molecular target: T1, OE19 (3A1) (Homo sapiens, UniProt P30838); experiment: Cellular ALDEFLUOR assay in OE19 cells (preferential ALDH3A1 expression); settings: for IC50: cellular IC50 (Aldefluor), OE19 cells
T1 sequence (P30838 1-453): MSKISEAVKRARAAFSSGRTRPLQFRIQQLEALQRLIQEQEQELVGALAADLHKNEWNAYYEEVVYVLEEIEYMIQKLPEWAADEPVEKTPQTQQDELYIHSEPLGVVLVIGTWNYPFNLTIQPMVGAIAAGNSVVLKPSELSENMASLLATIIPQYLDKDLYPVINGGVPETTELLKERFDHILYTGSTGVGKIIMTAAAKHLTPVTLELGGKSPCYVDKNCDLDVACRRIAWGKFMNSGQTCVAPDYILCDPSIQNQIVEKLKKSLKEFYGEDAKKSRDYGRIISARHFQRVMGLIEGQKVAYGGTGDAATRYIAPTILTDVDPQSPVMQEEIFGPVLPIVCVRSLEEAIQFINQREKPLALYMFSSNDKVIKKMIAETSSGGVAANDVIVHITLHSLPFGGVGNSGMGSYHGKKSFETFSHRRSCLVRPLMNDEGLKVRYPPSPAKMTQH

[3] = molecular target: T2, Human ALDH3A1 (Homo sapiens, UniProt P30838); experiment: ALDH3A1 biochemical assay (benzaldehyde/NADP+, diaphorase-resazurin readout, 1,536-well); settings: for IC50Ratio: 20X[SUB] vs 1X[SUB] benzaldehyde; for LLE: Table S7, pAC50 − cLogP; for inhibition mechanism (benzaldehyde substrate shift): retested at 4,000 μM benzaldehyde
T2 sequence (P30838 1-453): T1 sequence (P30838 1-453)

[4] = pION μSOL kinetic aqueous solubility; type: physicochemical; settings: in words; pH7.4
[5] = 20X[SUB] IC50 [µM], benzaldehyde 4,000 µM (~20× Km), NADP+ 1,000 µM
[6] = Table S5, biochemical curve class
[7] = Table S4, biochemical curve class

Row | SMILES | microsomal stability [1] | AC50 [2] | Cell_Efficacy ([2]; Table S5, OE19 cells) | Cell_CC-v2 ([2]; Table S5, cellular curve class) | IC50 [2] | AC50 [3] | IC50 [3, 5] | IC50Ratio [3] | IC50 ([3]; ALDH3A1 biochemical IC50) | Efficacy ([3]; Table S5, biochemical) | CC-v2 [3, 6] | LLE [3] | inhibition mechanism (benzaldehyde substrate shift) [3] | kinetic aqueous solubility [4] | Cell_Efficacy ([2]; Table S4, OE19 cells) | Cell_CC-v2 ([2]; Table S4, cellular curve class) | Efficacy ([3]; Table S4, biochemical) | CC-v2 [3, 7]
1 | Cc1nc(-c2cccc(CNC(=O)c3csc(N4CCN(c5cccc(C(F)(F)F)c5)CC4)n3)c2)cs1 [Compound 14] | only moderate microsomal stability | 0.0038 µM | -94.02 | -1.1 | 0.004 µM and 0.00384 µM and ~0.004 µM | 0.0316 µM | 1 µM | 32 | 0.0316 µM and 0.032 µM and ~0.032 µM | -99.22 | -1.1 | 1.65 | consistent with substrate-competitive inhibition | limited kinetic aqueous solubility | – | – | – | –
2 | O=C(NCc1cccc(C2CC2)c1)c1csc(N2CCN(c3cccc(C(F)(F)F)c3)CC2)n1 [Compound 13] | – | 0.0136 µM | -65.41 | -1.2 | 0.0136 µM and 0.014 µM and ~0.014 µM | 0.0011 µM | 0.0316 µM | 28 | 0.001 µM | -107.26 | -1.1 | 3.663 | consistent with substrate-competitive inhibition | limited kinetic aqueous solubility | – | – | – | –
3 | O=C(NCc1cccc(OC(F)(F)F)c1)c1csc(N2CCN(c3cccc(C(F)(F)F)c3)CC2)n1 [NCGC01407819-01] | – | 0.316 µM | -103.28 | -1.1 | – | 0.501 µM | – | – | – | -83.40 | -1.1 | – | – | – | – | – | – | –
4 | Cc1cc(CNC(=O)c2csc(N3CCN(c4cccc(C(F)(F)F)c4)CC3)n2)cc(C)c1Br [NCGC01407759-01] | – | – | 0.00 | 5 | – | 0.398 µM | – | – | – | -29.26 | -1.4 | – | – | – | – | – | – | –
5 | Cc1cccc(CNC(=O)c2csc(N3CCN(c4ccc(C(N)=O)cc4)CC3)n2)c1 [NCGC01211194-01] | – | 0.88 µM | – | – | – | 40.8 µM | – | – | – | – | – | – | – | – | -43.91 | -1.2 | -38.00 | -2.2
6 | O=C(NCc1ccc2c(c1)C(=O)NCC2)c1csc(N2CCN(c3cccc(C(F)(F)F)c3)CC2)n1 [NCGC01397286-01] | – | 0.398 µM | -10.99 | 5 | – | 0.447 µM | – | – | – | -60.58 | -1.2 | – | – | – | – | – | – | –
7 | O=C(Nc1ccc(CNC(=O)c2csc(N3CCN(c4cccc(C(F)(F)F)c4)CC3)n2)cc1)c1ccc(F)cc1 [NCGC01407975-01] | – | 0.1 µM | -85.75 | -1.1 | – | 0.355 µM | – | – | – | -39.06 | -1.2 | – | – | – | – | – | – | –
8 | COc1ccc(Cl)c(N2CCN(c3nc(C(=O)NCc4cccc(C)c4)cs3)CC2)c1 [NCGC01211381-01] | – | 31.3 µM | – | – | – | 0.58 µM | – | – | – | – | – | – | – | – | -102.69 | -2.3 | -89.43 | -1.1
9 | CC(C)(C)c1cc(CNC(=O)c2csc(N3CCN(c4cccc(C(F)(F)F)c4)CC3)n2)cc(C(C)(C)C)c1 [NCGC01407780-01] | – | – | 0.00 | 4 | – | – | – | – | – | -7.18 | 4 | – | – | – | – | – | – | –
10 | Cc1cccc(CNC(=O)c2csc(N3CCN(c4cccc(F)c4)CC3)n2)c1 [NCGC01219288-01] | – | 0.99 µM | – | – | – | 1.02 µM | – | – | – | – | – | – | – | – | -85.92 | -1.1 | -96.39 | -1.1
11 | CCc1ccc(N2CCN(c3nc(C(=O)NCc4cccc(C)c4)cs3)CC2)cc1Cl [NCGC01211398-01] | – | 2.48 µM | – | – | – | 0.58 µM | – | – | – | – | – | – | – | – | -99.68 | -1.1 | -91.75 | -1.1
12 | O=C(NCc1ccccc1-c1ccc(Cl)cc1Cl)c1csc(N2CCN(c3cccc(C(F)(F)F)c3)CC2)n1 [NCGC01407762-01] | – | 11.2 µM | -62.69 | -1.4 | – | – | – | – | – | 0.00 | 4 | – | – | – | – | – | – | –
13 | Cc1cccc(CNC(=O)c2csc(N3CCN(c4cccc([S+](=O)([O-])C(F)(F)F)c4)CC3)n2)c1 [NCGC01210726-01] | – | 15.7 µM | – | – | – | 18.2 µM | – | – | – | – | – | – | – | – | -81.37 | -1.2 | -54.32 | -1.2
14 | Cc1cc(CNC(=O)c2csc(N3CCN(c4cccc(C(F)(F)F)c4)CC3)n2)ccc1-c1ccccc1 [NCGC01407768-01] | – | 15.8 µM | -93.67 | -1.3 | – | 0.316 µM | – | – | – | -32.49 | -1.2 | – | – | – | – | – | – | –
15 | COc1ccc(N2CCN(c3nc(C(=O)NCc4cccc(C)c4)cs3)CC2)cc1OC [NCGC01211669-01] | – | 8.81 µM | – | – | – | 6.47 µM | – | – | – | – | – | – | – | – | -91.42 | -1.1 | -51.05 | -1.2
16 | O=C(NCc1ccc(C(F)(F)F)c(Cl)c1)c1csc(N2CCN(c3cccc(C(F)(F)F)c3)CC2)n1 [NCGC01407914-01] | – | 0.609 µM | -99.51 | -1.3 | – | 0.0282 µM | – | – | – | -95.28 | -1.1 | – | – | – | – | – | – | –
17 | Cc1cccc(CNC(=O)c2csc(N3CCN(c4ccc([S+](=O)([O-])F)cc4)CC3)n2)c1 [NCGC01211171-01] | – | 1.97 µM | – | – | – | 1.15 µM | – | – | – | – | – | – | – | – | -83.98 | -1.1 | -53.27 | -1.2
18 | O=C(NCc1ccc(S(F)(F)(F)(F)F)cc1)c1csc(N2CCN(c3cccc(C(F)(F)F)c3)CC2)n1 [NCGC01407933-01] | – | 2.72 µM | -85.12 | -1.1 | – | 0.0282 µM | – | – | – | -87.34 | -1.1 | – | – | – | – | – | – | –
19 | O=C(NCc1ccc(F)c(F)c1)c1csc(N2CCN(c3cccc(C(F)(F)F)c3)CC2)n1 [NCGC01407951-01] | – | 4.31 µM | -93.55 | -1.3 | – | 0.0355 µM | – | – | – | -100.75 | -1.1 | – | – | – | – | – | – | –
20 | Cc1ccc(CNC(=O)c2csc(N3CCN(c4cccc(C(F)(F)F)c4)CC3)n2)cc1C(F)(F)F [NCGC01407772-01] | – | 0.644 µM | -100.81 | -1.1 | – | 0.0596 µM | – | – | – | -88.60 | -1.1 | – | – | – | – | – | – | –
21 | O=C(NCc1ccc(C(F)F)c(F)c1)c1csc(N2CCN(c3cccc(C(F)(F)F)c3)CC2)n1 [NCGC01407984-01] | – | 0.242 µM | -105.03 | -2.2 | – | 0.0141 µM | – | – | – | -99.03 | -1.1 | – | – | – | – | – | – | –
22 | O=C(NCc1ccc2c(c1)CCC2)c1csc(N2CCN(c3cccc(C(F)(F)F)c3)CC2)n1 [NCGC01407784-01] | – | 0.0407 µM | -74.47 | -1.2 | – | 0.0188 µM | – | – | – | -99.55 | -1.1 | – | – | – | – | – | – | –
23 | Cc1cccc(CNC(=O)c2csc(N3CCN(Cc4cccc(C)c4)CC3)n2)c1 [NCGC01211187-01] | – | 4.42 µM | – | – | – | 0.91 µM | – | – | – | – | – | – | – | – | -121.01 | -2.1 | -93.83 | -1.1
24 | O=C(NCc1cccc(N2CCC2=O)c1)c1csc(N2CCN(c3cccc(C(F)(F)F)c3)CC2)n1 [Compound 20] | – | 0.0108 µM | -81.94 | -1.2 | – | 0.0631 µM | – | – | – | -96.26 | -1.1 | – | – | – | – | – | – | –
25 | O=C(NCc1ccc(SC(F)(F)F)cc1)c1csc(N2CCN(c3cccc(C(F)(F)F)c3)CC2)n1 [NCGC01407771-01] | – | 3.05 µM | -89.96 | -1.2 | – | 0.0251 µM | – | – | – | -94.50 | -1.1 | – | – | – | – | – | – | –
26 | O=C(NCCc1cccc(OCCCc2ccccc2)c1)c1csc(N2CCN(c3cccc(C(F)(F)F)c3)CC2)n1 [NCGC01407986-01] | – | 0.501 µM | -92.16 | -1.1 | – | 0.562 µM | – | – | – | -31.39 | -1.2 | – | – | – | – | – | – | –
27 | Cc1cccc(CNC(=O)c2csc(N3CCN(c4ccccc4F)CC3)n2)c1 [NCGC01211127-01] | – | 4.95 µM | – | – | – | 1.02 µM | – | – | – | – | – | – | – | – | -89.89 | -1.1 | -98.80 | -1.1
